# Test system: male Sprague-Dawley rats
# Experiment: EEG/EMG/Tcore/LMA telemetry sleep study 2 (EMPA vs ZOL)
# Assay type: in vivo, rat
# Settings: for REM:NR ratio: 6 h after dosing
# Protocol: All rodent electroencephalograph (EEG) studies were performed at SRI International. Three groups of eight male Sprague-Dawley rats (300±25 g; Charles River, Wilmington, MA) were implanted with chronic recording devices (F40-EET, Data Sciences Inc., St Paul, MN) for continuous recordings of EEG, electromyograph (EMG), core body temperature (Tcore), and LMA via telemetry as previously described. Data recording and scoring were performed as previously reported (see also Supplemental Material and Methods). The EEG and EMG data were scored in 10 sec epochs for waking (W), rapid eye movement sleep (REM), and non-REM sleep (NR). Tcore and LMA (counts per minute) were analyzed as hourly means. Data from the EEG studies are reported in hourly means such that the hourly time ZT1 refers to the hour between time points ZT0 and ZT1.
# For each of the three separate studies, a repeated measures counter-balanced design was employed in which each rat received five separate dosings. […] All dosings were administered ip in a volume of 2 ml/kg. A minimum of 3 d elapsed between doses. Dosing occurred during the middle of the rats’ normal active period at the start of ZT19 and was typically completed within 10 min. Animals were continuously recorded for 6 h prior to dosing and for 18 h following dosing.
smiles,measurement,setting,value
"CCN(Cc1cccnc1)C(=O)CN(c1ccc(OC)nc1)S(=O)(=O)c1ccccc1C [EMPA, N-(Ethyl-2-[(6-methoxy-pyridin-3-yl)-(toluene-2-sulfonyl)-amino]-N-pyridin-3-ylmethyl-acetamide)]",LMA (in words),"100 mg/kg ip, across 6 h, vs vehicle",LMA was decreased
same,cumulative NR (in words),"100 mg/kg ip, first 4 and 6 h periods",increased cumulative NR
same,NR bout duration,"6 h Average, 30 mg/kg ip",1.43 ±0.14
same,REM bout duration,"6 h Average, 30 mg/kg ip",0.88 ± 0.09
same,W bout duration,"6 h Average, 30 mg/kg ip",5.35 ±0.77
same,NR bout duration,"6 h Average, 100 mg/kg ip",1.28 ± 0.12^+
same,REM bout duration,"6 h Average, 100 mg/kg ip",0.96 ± 0.09
same,W bout duration,"6 h Average, 100 mg/kg ip",3.54 ± 0.20
same,NR bout duration,"6 h Average, EMPA 10 mg/kg ip",1.34 ± 0.17
same,REM bout duration,"6 h Average, EMPA 10 mg/kg ip",0.79 ± 0.09
same,W bout duration,"6 h Average, EMPA 10 mg/kg ip",5.56 ± 0.52
same,Number of NR bouts,"6 h Total, 30 mg/kg ip",68.80 ± 7.18
same,Number of REM bouts,"6 h Total, 30 mg/kg ip",22.10 ± 3.30^+
same,Number of W bouts,"6 h Total, 30 mg/kg ip",51.30 ± 4.95
same,Number of NR bouts,"6 h Total, 100 mg/kg ip",84.80 ± 5.06
same,Number of REM bouts,"6 h Total, 100 mg/kg ip",20.00 ± 1.93^+
same,Number of W bouts,"6 h Total, 100 mg/kg ip",65.10 ± 3.37
same,Number of NR bouts,"6 h Total, EMPA 10 mg/kg ip",68.80 ±6.22
same,Number of REM bouts,"6 h Total, EMPA 10 mg/kg ip",18.10 ± 2.28^+
same,Number of W bouts,"6 h Total, EMPA 10 mg/kg ip",50.20 ±5.70
same,REM:NR ratio,10 mg/kg ip (EMPA),0.16±0.019^+
same,REM:NR ratio,30 mg/kg ip,0.21±0.032^+
same,REM:NR ratio,100 mg/kg ip,0.18±0.027^+
same,NR bout duration,"ZT19, 30 mg/kg ip",1.27± 0.15^+
same,Number of NR bouts,"ZT19, 30 mg/kg ip",9.90 ± 1.60
same,Number of REM bouts,"ZT19, 30 mg/kg ip",1.20± 0.49
same,Number of W bouts,"ZT19, 30 mg/kg ip",6.20± 0.98
same,REM bout duration,"ZT19, 30 mg/kg ip",0.62± 0.22
same,W bout duration,"ZT19, 30 mg/kg ip",11.89± 5.40
same,NR bout duration,"ZT19, 100 mg/kg ip",1.11± 0.19^+
same,Number of NR bouts,"ZT19, 100 mg/kg ip",10.80± 2.39
same,Number of REM bouts,"ZT19, 100 mg/kg ip",0.90± 0.46
same,Number of W bouts,"ZT19, 100 mg/kg ip",9.80± 2.48
same,REM bout duration,"ZT19, 100 mg/kg ip",0.86± 0.19
same,W bout duration,"ZT19, 100 mg/kg ip",13.14± 5.99
same,NR bout duration,"ZT19, EMPA 10 mg/kg ip",1.60± 0.25^+
same,Number of NR bouts,"ZT19, EMPA 10 mg/kg ip",7.40 ± 2.00
same,Number of REM bouts,"ZT19, EMPA 10 mg/kg ip",1.60± 0.67
same,Number of W bouts,"ZT19, EMPA 10 mg/kg ip",4.60± 1.25
same,REM bout duration,"ZT19, EMPA 10 mg/kg ip",0.64± 0.15
same,W bout duration,"ZT19, EMPA 10 mg/kg ip",16.42± 5.00
same,NR bout duration,"ZT20, 30 mg/kg ip",1.50± 0.28^+
same,Number of NR bouts,"ZT20, 30 mg/kg ip",12.50± 2.18
same,Number of REM bouts,"ZT20, 30 mg/kg ip",4.40± 0.96^+
same,Number of W bouts,"ZT20, 30 mg/kg ip",8.30± 1.27
same,REM bout duration,"ZT20, 30 mg/kg ip",0.87± 0.13
same,W bout duration,"ZT20, 30 mg/kg ip",9.83± 5.62
same,NR bout duration,"ZT20, 100 mg/kg ip",1.86± 0.28^+
same,Number of NR bouts,"ZT20, 100 mg/kg ip",16.50± 2.03
same,Number of REM bouts,"ZT20, 100 mg/kg ip",5.00± 1.12^+
same,Number of W bouts,"ZT20, 100 mg/kg ip",11.60± 1.11
same,REM bout duration,"ZT20, 100 mg/kg ip",0.88± 0.08
same,W bout duration,"ZT20, 100 mg/kg ip",2.46± 0.62
same,NR bout duration,"ZT20, EMPA 10 mg/kg ip",1.15± 0.15^+
same,Number of NR bouts,"ZT20, EMPA 10 mg/kg ip",14.00±2.52
same,Number of REM bouts,"ZT20, EMPA 10 mg/kg ip",4.10± 1.11
same,Number of W bouts,"ZT20, EMPA 10 mg/kg ip",10.70± 1.85
same,REM bout duration,"ZT20, EMPA 10 mg/kg ip",0.90± 0.18
same,W bout duration,"ZT20, EMPA 10 mg/kg ip",9.37± 5.67
same,NR bout duration,"ZT21, 30 mg/kg ip",1.52± 0.21
same,Number of NR bouts,"ZT21, 30 mg/kg ip",15.90± 2.21
same,Number of REM bouts,"ZT21, 30 mg/kg ip",5.80± 1.35
same,Number of W bouts,"ZT21, 30 mg/kg ip",11.70± 1.55
same,REM bout duration,"ZT21, 30 mg/kg ip",1.01 ± 0.11
same,W bout duration,"ZT21, 30 mg/kg ip",3.04± 0.83
same,NR bout duration,"ZT21, 100 mg/kg ip",1.17± 0.11
same,Number of NR bouts,"ZT21, 100 mg/kg ip",17.00± 2.91
same,Number of REM bouts,"ZT21, 100 mg/kg ip",4.10± 1.08
same,Number of W bouts,"ZT21, 100 mg/kg ip",12.40± 2.01
same,REM bout duration,"ZT21, 100 mg/kg ip",1.18 ± 0.14^+
same,W bout duration,"ZT21, 100 mg/kg ip",8.88± 5.82
same,NR bout duration,"ZT21, EMPA 10 mg/kg ip",1.12± 0.17
same,Number of NR bouts,"ZT21, EMPA 10 mg/kg ip",13.50± 2.15
same,Number of REM bouts,"ZT21, EMPA 10 mg/kg ip",3.40± 0.73
same,Number of W bouts,"ZT21, EMPA 10 mg/kg ip",10.20± 1.61
same,REM bout duration,"ZT21, EMPA 10 mg/kg ip",0.69 ± 0.11
same,W bout duration,"ZT21, EMPA 10 mg/kg ip",6.55± 2.67
same,NR bout duration,"ZT22, 30 mg/kg ip",1.38± 0.15
same,Number of NR bouts,"ZT22, 30 mg/kg ip",12.20± 1.65
same,Number of REM bouts,"ZT22, 30 mg/kg ip",5.30± 1.09
same,Number of W bouts,"ZT22, 30 mg/kg ip",9.20± 1.32
same,REM bout duration,"ZT22, 30 mg/kg ip",0.83± 0.13
same,W bout duration,"ZT22, 30 mg/kg ip",4.90± 1.31
same,NR bout duration,"ZT22, 100 mg/kg ip",1.32± 0.31
same,Number of NR bouts,"ZT22, 100 mg/kg ip",18.40± 2.70
same,Number of REM bouts,"ZT22, 100 mg/kg ip",4.80± 0.98
same,Number of W bouts,"ZT22, 100 mg/kg ip",13.20± 1.76
same,REM bout duration,"ZT22, 100 mg/kg ip",0.84± 0.17
same,W bout duration,"ZT22, 100 mg/kg ip",2.84± 0.49
same,NR bout duration,"ZT22, EMPA 10 mg/kg ip",1.33± 0.24
same,Number of NR bouts,"ZT22, EMPA 10 mg/kg ip",12.70± 1.87
same,Number of REM bouts,"ZT22, EMPA 10 mg/kg ip",3.30± 0.58
same,Number of W bouts,"ZT22, EMPA 10 mg/kg ip",8.20± 1.73
same,REM bout duration,"ZT22, EMPA 10 mg/kg ip",0.84± 0.16
same,W bout duration,"ZT22, EMPA 10 mg/kg ip",7.34± 2.67
same,NR bout duration,"ZT23, 30 mg/kg ip",0.90± 0.11^+
same,Number of NR bouts,"ZT23, 30 mg/kg ip",10.80± 2.35
same,Number of REM bouts,"ZT23, 30 mg/kg ip",3.40± 1.24
same,Number of W bouts,"ZT23, 30 mg/kg ip",8.00± 1.56
same,REM bout duration,"ZT23, 30 mg/kg ip",0.75± 0.21
same,W bout duration,"ZT23, 30 mg/kg ip",11.46± 5.56
same,NR bout duration,"ZT23, 100 mg/kg ip",1.10± 0.20
same,Number of NR bouts,"ZT23, 100 mg/kg ip",12.30± 1.25
same,Number of REM bouts,"ZT23, 100 mg/kg ip",3.20± 0.63
same,Number of W bouts,"ZT23, 100 mg/kg ip",8.60± 1.01
same,REM bout duration,"ZT23, 100 mg/kg ip",0.96± 0.19
same,W bout duration,"ZT23, 100 mg/kg ip",4.89 ±0.81
same,NR bout duration,"ZT23, EMPA 10 mg/kg ip",1.39± 0.18
same,Number of NR bouts,"ZT23, EMPA 10 mg/kg ip",11.00± 1.40
same,Number of REM bouts,"ZT23, EMPA 10 mg/kg ip",3.40± 0.65
same,Number of W bouts,"ZT23, EMPA 10 mg/kg ip",7.90± 1.27
same,REM bout duration,"ZT23, EMPA 10 mg/kg ip",0.85± 0.09
same,W bout duration,"ZT23, EMPA 10 mg/kg ip",6.10± 1.02
same,NR bout duration,"ZT24, 30 mg/kg ip",1.45± 0.49
same,Number of NR bouts,"ZT24, 30 mg/kg ip",7.50± 1.61
same,Number of REM bouts,"ZT24, 30 mg/kg ip",2.00± 0.94
same,Number of W bouts,"ZT24, 30 mg/kg ip",7.10± 1.63
same,REM bout duration,"ZT24, 30 mg/kg ip",0.69± 0.13
same,W bout duration,"ZT24, 30 mg/kg ip",16.83± 7.31
same,NR bout duration,"ZT24, 100 mg/kg ip",1.04± 0.17
same,Number of NR bouts,"ZT24, 100 mg/kg ip",9.40± 2.24
same,Number of REM bouts,"ZT24, 100 mg/kg ip",2.00± 1.01
same,Number of W bouts,"ZT24, 100 mg/kg ip",8.40± 1.92
same,REM bout duration,"ZT24, 100 mg/kg ip",0.49± 0.09
same,W bout duration,"ZT24, 100 mg/kg ip",14.62± 6.09
same,NR bout duration,"ZT24, EMPA 10 mg/kg ip",1.25± 0.18^+
same,Number of NR bouts,"ZT24, EMPA 10 mg/kg ip",10.00± 2.22
same,Number of REM bouts,"ZT24, EMPA 10 mg/kg ip",2.30± 0.98
same,Number of W bouts,"ZT24, EMPA 10 mg/kg ip",7.80± 1.76
same,REM bout duration,"ZT24, EMPA 10 mg/kg ip",0.54± 0.10
same,W bout duration,"ZT24, EMPA 10 mg/kg ip",9.17± 2.45
same,NR or REM latency (in words),administered in the mid-dark phase,no effect on either NR or REM latency
same,number of W bouts (in words),"all three concentrations (10, 30, 100 mg/kg ip)",increased the number of W bouts
same,Tcore (in words),"high concentration tested, across 6 h",decreased Tcore
same,NR during the subsequent light period (in words),light period,No significant effects on NR

# Source: publication PMC3388080 (PLoS ONE, 2012)
